Results: patent US20260347401A1, “Peptide Fragment And Use Thereof” (TOAGOSEI CO., LTD., priority 2023, published 2026)
FAM = 5(6)-carboxyfluorescein

Test system: NSC-34 cells
Assay: Evaluation of cell membrane permeability by flow cytometry (fluorescence of FAM taken up by NSC-34 cells)
Format: cell-based, mouse
Details: for median fluorescence intensity (MFI): 10 μM in culture solution, 0.50% DMSO, 37 °C, 5% CO2, flow cytometer detector FL2; for median fluorescence intensity (MFI) / MFI compared with Example 3 (FAM): 20 hours; for MFI compared with Example 3 (FAM): 10 μM, result in words; for cell membrane permeability: peptide fragment, tested as FAM construct, conclusion in words
Description: As the eukaryotic cells, NSC-34 cells (mouse motor neuron-like hybrid cell line) were used and the cell membrane permeability of the prepared construct was evaluated.
The NSC-34 cell was cultured in 10% fetal bovine serum (FBS)-containing Dulbecco's modified Eagle's medium (DMEM (Cat No. 044-29765, manufactured by FUJIFILM Wako Pure Chemical Corporation)), which is a culture medium.
The NSC-34 cell that adhered to a culture plate was cleaned with PBS and then, a 0.25%-trypsin/EDTA solution was added thereto, and incubation was performed for three minutes at 37 °C. After the incubation, the aforementioned 10% FBS-containing DMEM was added to deactivate trypsin and then, five-minute centrifugal separation was performed at 150×g to precipitate the cells. After the supernatant generated by the centrifugal separation was removed, the 10% FBS-containing DMEM was added to the precipitate (cell pellet) to prepare a cell suspension of about 2×10^5 cells/mL. The cell suspension was added by 1 mL to a well of a commercially available six-hole (well) plate (manufactured by AGC TECHNO GLASS Co., Ltd.) so as to seed the cell (about 2×10^5 cells/well), and incubation was caried out for about two to three hours until the cell adhered to a bottom surface of the well. After that, the 2 mM sample solution 1 prepared as above was diluted with the 10% FBS-containing DMEM to prepare the sample solution 1 in which the concentration of the sample was 20 μM. Then, 1 mL of the 20 μM sample solution 1 was added to the well (that is, so that the concentration of the construct 1 became 10 μM and the DMSO concentration became 0.50% in the culture solution in the well). The cell was incubated for 20 hours at 37 °C under a 5% CO2 condition.
After the 20-hour incubation, the culture supernatant was removed from the well and the cells in the well were cleaned twice with 1 mL of PBS. Next, 100 μL of the 0.25% trypsin/EDTA solution was added to the well and the incubation was performed for three minutes at 37 °C. After the incubation, 900 μL of the 10% FBS-containing DMEM was added to the well to deactivate the trypsin. The cell suspension in the well was transferred to a tube and the cells were collected. After that, pre-washing was performed additionally, so that the cells remaining in the well were collected in the tube. This tube was subjected to five-minute centrifugal separation at 4 °C under a condition of 210×g. After the centrifugal separation, the supernatant was removed and the precipitate (cell pellet) was suspended (cleaned) with 1 mL of PBS, which was followed by the centrifugal separation under the same condition as that described above. Then, the supernatant was removed and thus, the cells (cell pellet) cultured in a culture medium containing the sample were obtained.
Regarding the obtained cells (cell pellet), the cell membrane permeability was analyzed using a flow cytometer. As the flow cytometer, On-Chip Flowcytometer (manufactured by On-Chip Biotechnologies Co., LTD.) was used.
For such an analysis, the obtained cell pellet was suspended with 50 μL of on-chip T buffer to prepare a cell suspension for analysis.
Using the aforementioned flow cytometer, gating based on forward scatter (FSC) and side scatter (SSC) was performed to set a gate about a cell group to be analyzed, and the fluorescence intensity was measured about the cell group in this gate. Note that the number of cells of the cell group to be analyzed was set to at least 10000, and the analysis was performed. The fluorescence intensity was measured using a fluorescence detector FL2 of the flow cytometer (optimum detection wavelength around 543 nm) capable of detecting the fluorescence wavelength of FAM. Regarding this measurement result, the analysis was performed using commercially available analysis software “FlowJo” (manufactured by TreeStar) to obtain median fluorescence intensity (MFI) of the cell group to be measured (see Table 1). […]

Substance	median fluorescence intensity (MFI)	MFI compared with Example 3 (FAM)	cell membrane permeability
5(6)-carboxyfluorescein [Example 3, reference compound]	7.28		
Ac-VLSRVQLREKLTR-FAM (Ac-VLSRVQLREKLTR-{FAM}) [Example 2]	31.3	higher	
Ac-VLSRVVQLLREKLTRKK-FAM [Example 1]	30.4	higher	
VLSRVQLREKLTR [SEQ ID No.: 2, peptide fragment (synthetic peptide) having cell membrane permeability]			has the cell membrane permeability
VLSRVVQLLREKLTRKK [SEQ ID No.: 1, peptide fragment (synthetic peptide) having cell membrane permeability]			has the cell membrane permeability
